Data from ChEMBL document CHEMBL3045290, “Novel salicylamide derivatives incorporating neonicotinoid pharmacophore: design, synthesis, characterization, and biological evaluation” (2013).

How the values were obtained:
Assay type in all cases: functional
Helicoverpa armigera [1] = experiment: Insecticidal activity against Helicoverpa armigera fed on artificial diet containing compound assessed as mortality at 125 ug/ml after 96 hr
Plutella xylostella [2] = experiment: Insecticidal activity against Plutella xylostella (diamondback moth) fed on artificial diet containing compound assessed as mortality at 62.5 ug/ml after 96 hr
Helicoverpa armigera [3] = experiment: Insecticidal activity against Helicoverpa armigera fed on artificial diet containing compound assessed as mortality at 1000 ug/ml after 96 hr
Plutella xylostella [4] = experiment: Insecticidal activity against Plutella xylostella (diamondback moth) fed on artificial diet containing compound assessed as mortality at 1000 ug/ml after 96 hr
Plutella xylostella [5] = experiment: Insecticidal activity against Plutella xylostella (diamondback moth) fed on artificial diet containing compound assessed as mortality at 31.25 ug/ml after 96 hr
Plutella xylostella [6] = experiment: Insecticidal activity against Plutella xylostella (diamondback moth) fed on artificial diet containing compound assessed as mortality at 250 ug/ml after 96 hr
Plutella xylostella [7] = experiment: Insecticidal activity against Plutella xylostella (diamondback moth) fed on artificial diet containing compound assessed as mortality at 125 ug/ml after 96 hr
Helicoverpa armigera [8] = experiment: Insecticidal activity against Helicoverpa armigera fed on artificial diet containing compound assessed as mortality at 500 ug/ml after 96 hr
Helicoverpa armigera [9] = experiment: Insecticidal activity against Helicoverpa armigera fed on artificial diet containing compound assessed as mortality at 250 ug/ml after 96 hr
Plutella xylostella [10] = experiment: Insecticidal activity against Plutella xylostella (diamondback moth) fed on artificial diet containing compound assessed as mortality at 500 ug/ml after 96 hr
Helicoverpa armigera [11] = experiment: Insecticidal activity against Helicoverpa armigera fed on artificial diet containing compound assessed as mortality at 62.5 ug/ml after 96 hr
Helicoverpa armigera [12] = experiment: Insecticidal activity against Helicoverpa armigera fed on artificial diet containing compound assessed as mortality at 31.25 ug/ml after 96 hr

| Structure (SMILES) | mortality at 125 µg/mL (Helicoverpa armigera [1]) [%] | mortality at 62.5 µg/mL (Plutella xylostella [2]) [%] | mortality at 1000 µg/mL (Helicoverpa armigera [3]) [%] | mortality at 1000 µg/mL (Plutella xylostella [4]) [%] | mortality at 31.25 µg/mL (Plutella xylostella [5]) [%] | mortality at 250 µg/mL (Plutella xylostella [6]) [%] | mortality at 125 µg/mL (Plutella xylostella [7]) [%] | mortality at 500 µg/mL (Helicoverpa armigera [8]) [%] | mortality at 250 µg/mL (Helicoverpa armigera [9]) [%] | mortality at 500 µg/mL (Plutella xylostella [10]) [%] | mortality at 62.5 µg/mL (Helicoverpa armigera [11]) [%] | mortality at 31.25 µg/mL (Helicoverpa armigera [12]) [%] |
| --- | --- | --- | --- | --- | --- | --- | --- | --- | --- | --- | --- | --- |
| O=C(Nc1cc(C(F)(F)F)cc(C(F)(F)F)c1)c1ccccc1OCc1ccc(Cl)nc1 | 0 | 0 | 0 | 0 | 0 | 0 | 0 | 0 | 0 | 0 | 0 | 0 |
| CCN(CC)C(=O)c1ccccc1OCc1ccc(Cl)nc1 | 0 | 0 | 41 | 41 | 0 | 0 | 0 | 0 | 0 | 0 | 0 | 0 |
| O=C(Nc1ccccc1)c1ccccc1OCc1ccc(Cl)nc1 | 0 | 0 | 0 | 81 | 0 | 41 | 41 | 0 | 0 | 81 | 0 | 0 |
| O=C(Nc1cc(Cl)c(OC(F)(F)C(F)F)c(Cl)c1)c1ccccc1OCc1ccc(Cl)nc1 | 0 | 41 | 100 | 100 | 41 | 100 | 100 | 41 | 41 | 100 | 0 | 0 |
| CC(C)N(C(=O)c1ccccc1OCc1ccc(Cl)nc1)C(C)C | 41 | 0 | 100 | 100 | 0 | 100 | 41 | 100 | 41 | 100 | 0 | 0 |
| COc1ccc(NC(=O)c2ccccc2OCc2ccc(Cl)nc2)cc1 | 0 | 81 | 0 | 100 | 41 | 100 | 100 | 0 | 0 | 100 | 0 | 0 |
| CC(C)NC(=O)c1ccccc1OCc1ccc(Cl)nc1 | 0 | 0 | 41 | 100 | 0 | 100 | 41 | 41 | 0 | 100 | 0 | 0 |
| Cc1cc(Cl)ccc1NC(=O)c1ccccc1OCc1ccc(Cl)nc1 | 0 | 0 | 100 | 100 | 0 | 41 | 41 | 41 | 41 | 41 | 0 | 0 |
| O=C(Nc1ccc(I)cc1)c1ccccc1OCc1ccc(Cl)nc1 | 0 | 0 | 0 | 100 | 0 | 100 | 41 | 0 | 0 | 100 | 0 | 0 |
| O=C(c1ccccc1OCc1ccc(Cl)nc1)N1CCCCC1 | 0 | 0 | 41 | 41 | 0 | 0 | 0 | 0 | 0 | 41 | 0 | 0 |
